Reference: ChEMBL document CHEMBL1135038, “Initial structure-activity relationship studies of a novel series of pyrrolo[1,2-a]pyrimid-7-ones as GnRH receptor antagonists” (Bioorg Med Chem Lett, 2002)

These molecules were tested against T1, Gonadotropin-releasing hormone receptor (Rattus norvegicus, UniProt P30969) (assay: Binding affinity against gonadotropin-releasing hormone receptor of rat).
T1 sequence (P30969 whole entry): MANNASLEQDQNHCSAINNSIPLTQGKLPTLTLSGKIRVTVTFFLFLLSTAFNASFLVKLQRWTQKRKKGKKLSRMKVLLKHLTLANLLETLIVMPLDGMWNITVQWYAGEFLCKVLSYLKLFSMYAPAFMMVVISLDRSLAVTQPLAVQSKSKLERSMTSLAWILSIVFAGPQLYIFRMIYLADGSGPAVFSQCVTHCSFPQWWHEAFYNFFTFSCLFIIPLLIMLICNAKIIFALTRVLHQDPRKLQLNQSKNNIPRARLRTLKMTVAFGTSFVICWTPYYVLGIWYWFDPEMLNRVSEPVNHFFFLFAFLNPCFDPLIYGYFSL

Row | SMILES | Ki | IC50
1 | Cc1cc(C)cc(-c2[nH]c3ccccc3c2CCNCCCCc2ccc(NS(C)(=O)=O)cc2)c1 | – | 170 nM
2 | Cc1cc(-c2c(O)nc3ccc(C(=O)Nc4ccncn4)cc3c2OCC[C@@H]2CCN2)cc(C)c1C | – | 4 nM

More lines, now with the values ahead:

Row | Ki | IC50 | SMILES
3 | 7700 nM | – | CCC(CC)OC(=O)c1cn(Cc2ccccc2F)c2c(C#N)c(-c3ccc(OC)cc3)c(CN(C)CCc3ccccn3)n2c1=O
4 | 7600 nM | – | CCC(CC)OC(=O)c1cn(Cc2ccccc2F)c2c(C#N)c(-c3ccc(OC4CCCC4)cc3)c(CN(C)CCc3ccccn3)n2c1=O
5 | 8900 nM | – | CN(CCc1ccccn1)Cc1c(-c2ccc(OC3CCCC3)cc2)c(C#N)c2n(Cc3ccccc3F)cc(C(=O)OC3CCCC3)c(=O)n12
6 | 7300 nM | – | CCC(CC)OC(=O)c1cn(Cc2ccccc2F)c2c(C#N)c(-c3ccc(OCC(C)C)cc3)c(CN(C)CCc3ccccn3)n2c1=O

These molecules were tested against T2, Gonadotropin-releasing hormone receptor (Homo sapiens, UniProt P30968) (assay: Binding affinity against human GnRH receptor expressed in HEK293 cells using des-Gly10[125I]Tyr5, D-Leu, NMeLeu, Pro-NEt GnRH as radioligand.).
T2 sequence (P30968 whole entry): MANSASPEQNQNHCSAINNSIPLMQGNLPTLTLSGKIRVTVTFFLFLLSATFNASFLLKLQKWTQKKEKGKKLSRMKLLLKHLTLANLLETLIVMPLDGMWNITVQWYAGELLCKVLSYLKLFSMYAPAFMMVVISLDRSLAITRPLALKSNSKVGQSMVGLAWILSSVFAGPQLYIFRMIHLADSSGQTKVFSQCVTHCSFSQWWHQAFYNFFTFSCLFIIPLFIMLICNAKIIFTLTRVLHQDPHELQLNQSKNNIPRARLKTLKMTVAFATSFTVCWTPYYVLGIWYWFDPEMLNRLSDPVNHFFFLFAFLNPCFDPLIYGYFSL
Assay type: cell-based

Row | SMILES | Ki
7 | CCOC(=O)c1cn(Cc2ccc(F)cc2F)c2c(C#N)c(-c3ccc(OCC(C)C)cc3)c(CN(C)CCc3ccccn3)n2c1=O | 400 nM
8 | CCOC(=O)c1cn(Cc2cc(F)ccc2F)c2c(C#N)c(-c3ccc(OC)cc3)c(CN(C)CCc3ccccn3)n2c1=O | 6000 nM
9 | CCOC(=O)c1cn(Cc2cc(F)ccc2F)c2c(C#N)c(-c3ccc(OCC(C)C)cc3)c(CN(C)CCc3ccccn3)n2c1=O | 1200 nM
10 | CCOC(=O)c1cn(Cc2c(F)cccc2F)c2c(C#N)c(-c3ccc(OCC(C)C)cc3)c(CN(C)CCc3ccccn3)n2c1=O | 800 nM
11 | CCOC(=O)c1cn(Cc2ccc(F)cc2F)c2c(C#N)c(-c3ccc(OC)cc3)c(CN(C)CCc3ccccn3)n2c1=O | 3700 nM
12 | CCOC(=O)c1cn(Cc2ccccc2)c2c(C#N)c(-c3ccc(OC)cc3)c(CN(C)C)n2c1=O | > 50000 nM
13 | CCOC(=O)c1cn(Cc2ccc(F)cc2F)c2c(C#N)c(-c3ccc(OCC(C)C)cc3)c(CN(C)CCc3ccccc3)n2c1=O | > 50000 nM
14 | CCOC(=O)c1cn(Cc2ccccc2)c2c(C#N)c(-c3ccc(OC)cc3)c(CN(C)CCc3ccccn3)n2c1=O | 2600 nM
15 | CCOC(=O)c1cn(Cc2ccccc2)c2c(C#N)c(-c3ccc(OC)cc3)c(CN(C)Cc3ccccc3)n2c1=O | 42000 nM
16 | CCOC(=O)c1cn(Cc2c(F)cccc2F)c2c(C#N)c(-c3ccc(OC)cc3)c(CN(C)CCc3ccccn3)n2c1=O | 2000 nM
17 | CCOC(=O)c1cn(Cc2ccc(F)cc2F)c2c(C#N)c(-c3ccc(OCC(C)C)cc3)c(CN(C)CCc3ccncc3)n2c1=O | > 50000 nM
18 | CCOC(=O)c1cn(CC2CC2)c2c(C#N)c(-c3ccc(OC)cc3)c(CN(C)CCc3ccccn3)n2c1=O | > 50000 nM
19 | CCOC(=O)c1cn(Cc2ccccc2OC)c2c(C#N)c(-c3ccc(OCC(C)C)cc3)c(CN(C)CCc3ccccn3)n2c1=O | 2200 nM
20 | CCOC(=O)c1cn(Cc2ccccc2F)c2c(C#N)c(-c3ccc(OC)cc3)c(CN(C)Cc3ccccc3)n2c1=O | 1800 nM
21 | CCOC(=O)c1cn(Cc2ccc(F)cc2F)c2c(C#N)c(-c3ccc(OCC(C)C)cc3)c(CN(C)CCc3cccnc3)n2c1=O | 28000 nM

More lines, now with the values ahead:

Row | Ki | SMILES
22 | 8500 nM | CCOC(=O)c1cn(Cc2ccccc2Cl)c2c(C#N)c(-c3ccc(OC)cc3)c(CN(C)CCc3ccccn3)n2c1=O
23 | 2100 nM | COc1ccc(-c2c(C#N)c3n(Cc4ccccc4F)cc(C(=O)OC4CCOC4)c(=O)n3c2CN(C)CCc2ccccn2)cc1 (configuration not stated)
24 | 180 nM | CCC(CC)OC(=O)c1cn(Cc2ccccc2F)c2c(C#N)c(-c3ccc(OC)cc3)c(CN(C)CCc3ccccn3)n2c1=O
25 | 31 nM | CCC(CC)OC(=O)c1cn(Cc2ccccc2F)c2c(C#N)c(-c3ccc(OC4CCCC4)cc3)c(CN(C)CCc3ccccn3)n2c1=O
26 | 33 nM | CN(CCc1ccccn1)Cc1c(-c2ccc(OC3CCCC3)cc2)c(C#N)c2n(Cc3ccccc3F)cc(C(=O)OC3CCCC3)c(=O)n12
27 | 6600 nM | CCOC(=O)c1cn(Cc2ccccc2OC)c2c(C#N)c(-c3ccc(OC)cc3)c(CN(C)CCc3ccccn3)n2c1=O
28 | 260 nM | COc1ccc(-c2c(C#N)c3n(Cc4ccccc4F)cc(C(=O)OC4CCCC4)c(=O)n3c2CN(C)CCc2ccccn2)cc1
29 | 500 nM | CCOC(=O)c1cn(Cc2ccccc2F)c2c(C#N)c(-c3ccc(OC)cc3)c(CN(C)CCc3ccccn3)n2c1=O
30 | 2400 nM | CCOC(=O)c1cn(Cc2cccc(F)c2F)c2c(C#N)c(-c3ccc(OC)cc3)c(CN(C)CCc3ccccn3)n2c1=O
31 | 100 nM | CCOC(=O)c1cn(Cc2ccccc2F)c2c(C#N)c(-c3ccc(OCC(C)C)cc3)c(CN(C)CCc3ccccn3)n2c1=O
32 | 400 nM | COc1ccc(-c2c(C#N)c3n(Cc4ccccc4F)cc(C(=O)OC(C)C)c(=O)n3c2CN(C)CCc2ccccn2)cc1
33 | 2500 nM | COc1ccc(-c2c(C#N)c3n(Cc4ccccc4F)cc(C(=O)OC(C4CC4)C4CC4)c(=O)n3c2CN(C)CCc2ccccn2)cc1
34 | 4900 nM | CCOC(=O)c1cn(Cc2ccccc2C#N)c2c(C#N)c(-c3ccc(OC)cc3)c(CN(C)CCc3ccccn3)n2c1=O
35 | 25 nM | CCC(CC)OC(=O)c1cn(Cc2ccccc2F)c2c(C#N)c(-c3ccc(OCC(C)C)cc3)c(CN(C)CCc3ccccn3)n2c1=O

The molecules below were run against T2, Gonadotropin-releasing hormone receptor (assay: Inhibitory activity against human GnRH receptor using des-Gly10[125I]Tyr5, D-Leu, NMeLeu, Pro-NEt]GnRH radioligand).

Row | IC50 | SMILES
36 | 7 nM | Cc1cc(C)cc(-c2[nH]c3ccccc3c2CCNCCCCc2ccc(NS(C)(=O)=O)cc2)c1
37 | 0.4 nM | Cc1cc(-c2c(O)nc3ccc(C(=O)Nc4ccncn4)cc3c2OCC[C@@H]2CCN2)cc(C)c1C
